In patent US7696357B2, “Stable hydrate of a muscarinic receptor antagonist” (Novartis International Pharmaceutical Ltd., priority 2002, dated 2010):

Experiment: storage stability / shelf life of the solid form
Format: physicochemical
Conditions: storage over time

## NC(=O)C(c1ccccc1)(c1ccccc1)[C@@H]1CCN(CCc2ccc3c(c2)CCO3)C1 [darifenacin hydrate, (S)-2-{1-[2-(2,3-dihydrobenzofuran-5-yl)ethyl]-3-pyrrolidinyl}-2,2-diphenylacetamide hydrate]
hydrate
  stability on storage (in words): stable over long periods
Listed as solid hydrate, hydrate
  stability on storage (in words): remain stable for well over a year

## NC(=O)C(c1ccccc1)(c1ccccc1)[C@@H]1CCN(CCc2ccc3c(c2)CCO3)C1 [free base, (S)-2-{1-[2-(2,3-dihydrobenzofuran-5-yl)ethyl]-3-pyrrolidinyl}-2,2-diphenylacetamide, reference compound]
  stability on storage (in words): very unstable

## NC(=O)C(c1ccccc1)(c1ccccc1)[C@@H]1CCN(CCc2ccc3c(c2)CCO3)C1 [toluene solvate, (S)-2-{1-[2-(2,3-dihydrobenzofuran-5-yl)ethyl]-3-pyrrolidinyl}-2,2-diphenylacetamide toluene solvate]
  stability on storage (in words): not stable over medium to long term storage periods
